Columns and labels:
[1] = target: T1, 5-hydroxytryptamine receptor 1A (Rattus norvegicus, UniProt P19327); assay: Displacement of [3H]8-OH-DPAT from 5-hydroxytryptamine 1A receptor of rat hippocampal membranes; assay type: cell membranes, Membrane
T1 sequence (P19327 whole entry): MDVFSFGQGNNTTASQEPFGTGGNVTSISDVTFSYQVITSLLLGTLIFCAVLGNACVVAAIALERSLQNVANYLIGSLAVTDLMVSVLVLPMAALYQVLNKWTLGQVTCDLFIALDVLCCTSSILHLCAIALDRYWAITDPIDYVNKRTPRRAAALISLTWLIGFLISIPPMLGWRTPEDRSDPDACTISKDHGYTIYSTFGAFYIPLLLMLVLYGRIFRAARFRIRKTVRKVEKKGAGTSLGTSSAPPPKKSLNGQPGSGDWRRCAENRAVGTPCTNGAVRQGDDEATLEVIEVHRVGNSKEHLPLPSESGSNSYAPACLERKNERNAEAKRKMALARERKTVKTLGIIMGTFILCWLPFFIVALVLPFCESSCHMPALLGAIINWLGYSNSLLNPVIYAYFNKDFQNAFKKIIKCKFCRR

[2] = target: T1, 5-hydroxytryptamine receptor 1A; assay: Inhibition of forskolin-activated adenylate cyclase (cAMP) activity at 5-hydroxytryptamine 1A receptor in rat hippocampus; assay type: functional, tissue-based
[3] = Inhibition of [3H]ketanserin binding to 5-hydroxytryptamine 2 receptor of bovine frontal cortex; assay type: tissue-based, Bos taurus
[4] = target: 5-hydroxytryptamine receptor 1D (Sus scrofa, UniProt P79400); assay: Binding affinity against 5-hydroxytryptamine 1D receptor using [3H]5-HT in pig striatum + frontalCortex; assay type: tissue-based
5-hydroxytryptamine receptor 1D, sequence (P79400 whole entry): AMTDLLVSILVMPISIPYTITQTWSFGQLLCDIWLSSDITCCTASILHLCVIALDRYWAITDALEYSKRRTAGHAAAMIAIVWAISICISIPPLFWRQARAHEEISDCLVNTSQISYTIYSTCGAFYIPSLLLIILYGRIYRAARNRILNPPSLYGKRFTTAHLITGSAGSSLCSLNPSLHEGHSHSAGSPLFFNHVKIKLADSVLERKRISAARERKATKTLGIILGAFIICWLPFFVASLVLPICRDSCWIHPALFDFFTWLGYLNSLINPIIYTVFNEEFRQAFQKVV

[5] = target: T2, 5-hydroxytryptamine receptor 3B (Mus musculus, UniProt Q9JHJ5); assay: Inhibition of [3H]BRL-43694 binding to 5-hydroxytryptamine 3 receptor in NG cells 108-15; assay type: cell-based
T2 sequence (Q9JHJ5 whole entry): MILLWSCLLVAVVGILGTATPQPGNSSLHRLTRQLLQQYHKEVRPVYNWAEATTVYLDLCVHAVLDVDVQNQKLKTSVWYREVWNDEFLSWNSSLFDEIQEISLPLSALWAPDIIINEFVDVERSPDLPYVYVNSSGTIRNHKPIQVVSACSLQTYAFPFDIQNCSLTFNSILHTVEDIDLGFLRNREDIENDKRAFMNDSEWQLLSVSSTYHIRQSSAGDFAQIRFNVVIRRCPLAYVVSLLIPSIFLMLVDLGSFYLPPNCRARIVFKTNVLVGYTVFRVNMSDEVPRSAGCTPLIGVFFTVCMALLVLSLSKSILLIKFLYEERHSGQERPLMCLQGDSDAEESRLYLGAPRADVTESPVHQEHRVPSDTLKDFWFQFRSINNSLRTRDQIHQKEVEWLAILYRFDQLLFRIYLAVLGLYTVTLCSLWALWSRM

[6] = target: D(2) dopamine receptor (Bos taurus, UniProt P20288); assay: Inhibition of [3H]raclopride binding to Dopamine receptor D2 of bovine striatum; assay type: tissue-based
D(2) dopamine receptor, sequence (P20288 whole entry): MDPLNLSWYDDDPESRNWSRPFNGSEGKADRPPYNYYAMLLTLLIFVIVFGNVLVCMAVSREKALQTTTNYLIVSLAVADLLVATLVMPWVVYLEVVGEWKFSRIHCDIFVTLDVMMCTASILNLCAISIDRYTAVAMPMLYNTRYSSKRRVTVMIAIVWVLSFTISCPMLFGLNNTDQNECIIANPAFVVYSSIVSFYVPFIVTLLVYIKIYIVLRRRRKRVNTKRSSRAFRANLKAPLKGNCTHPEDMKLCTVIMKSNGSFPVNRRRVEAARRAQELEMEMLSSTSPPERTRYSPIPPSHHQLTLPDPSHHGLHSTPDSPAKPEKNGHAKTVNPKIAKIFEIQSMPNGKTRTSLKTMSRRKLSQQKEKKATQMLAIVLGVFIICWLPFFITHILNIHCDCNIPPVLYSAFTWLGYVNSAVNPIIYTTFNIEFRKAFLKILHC

[7] = target: T3, D(1A) dopamine receptor (Bos taurus, UniProt Q95136); assay: Inhibition of [3H]SCH-23390 binding to Dopamine receptor D1 of bovine striatum; assay type: tissue-based
T3 sequence (Q95136 whole entry): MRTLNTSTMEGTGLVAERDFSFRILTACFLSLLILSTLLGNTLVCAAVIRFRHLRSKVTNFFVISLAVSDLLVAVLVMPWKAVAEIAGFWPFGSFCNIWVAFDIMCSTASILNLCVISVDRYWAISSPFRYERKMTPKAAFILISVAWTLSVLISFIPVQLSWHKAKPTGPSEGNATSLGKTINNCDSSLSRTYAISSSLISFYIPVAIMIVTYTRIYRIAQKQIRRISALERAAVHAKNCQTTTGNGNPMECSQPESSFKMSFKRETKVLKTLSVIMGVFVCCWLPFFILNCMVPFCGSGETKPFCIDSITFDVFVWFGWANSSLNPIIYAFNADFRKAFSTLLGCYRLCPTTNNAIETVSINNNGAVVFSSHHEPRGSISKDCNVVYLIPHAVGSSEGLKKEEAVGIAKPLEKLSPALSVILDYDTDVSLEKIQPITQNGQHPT

[8] = target: Histamine H1 receptor (Rattus norvegicus, UniProt P31390); assay: Inhibition of [3H]pyrilamine binding to Histamine H1 receptor in rat cortex
Histamine H1 receptor, sequence (P31390 whole entry): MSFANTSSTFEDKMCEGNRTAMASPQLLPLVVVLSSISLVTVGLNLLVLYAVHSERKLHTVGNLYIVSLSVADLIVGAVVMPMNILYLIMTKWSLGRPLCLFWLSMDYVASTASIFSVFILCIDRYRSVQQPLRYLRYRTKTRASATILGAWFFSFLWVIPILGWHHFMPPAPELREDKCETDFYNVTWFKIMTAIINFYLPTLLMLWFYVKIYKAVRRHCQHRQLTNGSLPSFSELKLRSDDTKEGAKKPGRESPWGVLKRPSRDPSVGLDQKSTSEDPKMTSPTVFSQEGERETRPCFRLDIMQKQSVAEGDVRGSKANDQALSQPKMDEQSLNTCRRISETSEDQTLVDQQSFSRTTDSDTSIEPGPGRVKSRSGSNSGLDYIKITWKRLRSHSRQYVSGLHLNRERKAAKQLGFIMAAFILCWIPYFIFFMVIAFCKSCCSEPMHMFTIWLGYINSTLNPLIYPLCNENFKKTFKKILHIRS

[9] = target: Sigma non-opioid intracellular receptor 1 (Rattus norvegicus, UniProt Q9R0C9); assay: Inhibition of [3H]DTG binding to sigma receptor in rat hippocampus; assay type: tissue-based
Sigma non-opioid intracellular receptor 1 (Rattus norvegicus, UniProt Q9R0C9), sequence (Q9R0C9 whole entry): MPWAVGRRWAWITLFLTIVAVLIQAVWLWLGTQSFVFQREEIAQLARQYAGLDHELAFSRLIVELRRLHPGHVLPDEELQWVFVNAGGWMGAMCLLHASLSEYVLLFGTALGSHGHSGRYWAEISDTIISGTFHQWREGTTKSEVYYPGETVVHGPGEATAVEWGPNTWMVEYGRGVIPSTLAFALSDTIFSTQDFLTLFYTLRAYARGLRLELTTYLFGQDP

[10] = Displacement of [3H]-prazosin from Alpha-1 adrenergic receptor of bovine frontal cortex; assay type: tissue-based, Bos taurus
[11] = target: T4, 5-hydroxytryptamine receptor 1A (Rattus norvegicus) (UniProt P19327); assay: Inhibition of [3H]8-OH-DPAT binding to 5-hydroxytryptamine 1A receptor in rat hippocampal membranes at 10e-7 M; assay type: cell membranes; details: Hippocampus, Membrane
T4 sequence (whole entry): T1 sequence (P19327 whole entry)

[12] = species: Bos taurus; assay: Inhibition of [3H]ketanserin binding to 5-hydroxytryptamine 2 receptor of bovine frontal cortex at 10e-7 M; assay type: tissue-based
[13] = species: Bos taurus; assay: Inhibition of [3H]prazosin binding to Alpha-1 adrenergic receptor of calf frontal cortex at 10e-7 M; assay type: tissue-based
[14] = target: D(2) dopamine receptor (Bos taurus) (UniProt P20288); assay: Inhibition of [3H]YM-09151-2 binding to Dopamine receptor D2 of bovine striatal preparations at 10e-7 M
D(2) dopamine receptor (Bos taurus), sequence (P20288 whole entry): as the sequence (P20288 whole entry) above

[15] = target: 5-hydroxytryptamine receptor 2A (Bos taurus, UniProt Q75Z89); assay: Binding affinity against 5-hydroxytryptamine 2 receptor
5-hydroxytryptamine receptor 2A, sequence (Q75Z89 whole entry): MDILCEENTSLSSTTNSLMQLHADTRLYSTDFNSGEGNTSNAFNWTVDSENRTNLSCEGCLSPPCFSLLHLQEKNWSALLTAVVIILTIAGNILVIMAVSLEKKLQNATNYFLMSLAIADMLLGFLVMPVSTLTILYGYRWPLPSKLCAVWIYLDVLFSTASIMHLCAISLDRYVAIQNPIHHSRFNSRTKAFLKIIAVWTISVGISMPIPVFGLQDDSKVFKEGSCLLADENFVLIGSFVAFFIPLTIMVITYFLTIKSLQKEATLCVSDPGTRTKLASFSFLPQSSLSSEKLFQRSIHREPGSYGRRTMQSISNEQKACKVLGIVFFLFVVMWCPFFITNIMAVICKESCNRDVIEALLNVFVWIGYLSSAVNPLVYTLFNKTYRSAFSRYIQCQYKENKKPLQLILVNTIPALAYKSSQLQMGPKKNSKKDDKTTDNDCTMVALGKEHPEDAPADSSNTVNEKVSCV

[16] = target: D(1A) dopamine receptor (Mus musculus, UniProt Q61616); assay: Binding affinity against Dopamine receptor D1
D(1A) dopamine receptor (Mus musculus, UniProt Q61616), sequence (Q61616 whole entry): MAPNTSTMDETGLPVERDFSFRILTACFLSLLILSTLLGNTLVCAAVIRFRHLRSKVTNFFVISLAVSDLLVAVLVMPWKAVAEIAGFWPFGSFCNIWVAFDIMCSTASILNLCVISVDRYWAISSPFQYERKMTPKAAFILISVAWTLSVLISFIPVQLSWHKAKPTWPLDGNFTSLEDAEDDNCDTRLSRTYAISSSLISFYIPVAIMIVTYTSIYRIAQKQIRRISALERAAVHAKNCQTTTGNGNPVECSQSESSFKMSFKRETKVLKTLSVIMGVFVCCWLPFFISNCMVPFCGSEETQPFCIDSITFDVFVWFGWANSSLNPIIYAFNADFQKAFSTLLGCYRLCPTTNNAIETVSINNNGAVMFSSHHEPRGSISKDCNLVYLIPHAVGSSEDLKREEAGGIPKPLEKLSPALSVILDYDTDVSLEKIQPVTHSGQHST

[17] = system: Rattus norvegicus; assay: in vivo behavioral test for Lower Lip Retraction(LLR) (msad=minimum significant active dose) in rats; assay type: functional
[18] = target: Sigma non-opioid intracellular receptor 1 (Homo sapiens, UniProt Q99720); assay: Binding affinity against sigma receptor
Sigma non-opioid intracellular receptor 1 (Homo sapiens, UniProt Q99720), sequence (Q99720 whole entry): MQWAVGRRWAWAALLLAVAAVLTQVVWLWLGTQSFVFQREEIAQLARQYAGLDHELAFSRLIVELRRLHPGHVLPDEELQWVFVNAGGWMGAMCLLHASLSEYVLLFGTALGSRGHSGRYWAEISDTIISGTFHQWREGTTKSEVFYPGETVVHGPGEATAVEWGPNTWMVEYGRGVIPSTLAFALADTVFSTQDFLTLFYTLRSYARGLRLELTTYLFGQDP

[19] = target: T5, Alpha-1A adrenergic receptor (Bos taurus, UniProt P18130); assay: Binding affinity of compound towards Alpha-1 adrenergic receptor using [3H]prazosin 0.5 nM ligand in frontal cortex calf was determined; assay type: tissue-based
T5 sequence (P18130 whole entry): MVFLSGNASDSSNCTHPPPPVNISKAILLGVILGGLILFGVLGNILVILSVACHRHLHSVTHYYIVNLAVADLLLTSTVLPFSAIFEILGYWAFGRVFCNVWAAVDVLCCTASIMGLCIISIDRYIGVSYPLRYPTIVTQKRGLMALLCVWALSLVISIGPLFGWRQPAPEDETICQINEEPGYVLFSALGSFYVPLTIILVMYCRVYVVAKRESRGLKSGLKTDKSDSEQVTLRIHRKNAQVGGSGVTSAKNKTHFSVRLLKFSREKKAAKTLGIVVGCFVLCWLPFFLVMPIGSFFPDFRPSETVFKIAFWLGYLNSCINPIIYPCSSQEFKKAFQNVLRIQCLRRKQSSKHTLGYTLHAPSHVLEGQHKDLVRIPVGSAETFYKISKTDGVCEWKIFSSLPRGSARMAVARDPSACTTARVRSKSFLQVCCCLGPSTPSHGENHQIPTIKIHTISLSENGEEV

[20] = target: T5, Alpha-1A adrenergic receptor; assay: Inhibition of [3H]prazosin binding to Alpha-1 adrenergic receptor in bovine frontal cortex; assay type: tissue-based
[21] = target: T3, D(1A) dopamine receptor; assay: Binding affinity of compound towards Dopamine receptor D1 using [3H]SCH-23390 (0.5 nM) ligand in striatum bovine was determined; assay type: tissue-based

inhibition [11] [%] | inhibition [12] [%] | inhibition [13] [%] | inhibition [14] [%] | Compound | Ki [1] [nM] | IC50 [2] [nM] | Ki [6] [nM] | Ki [7] [µM] | Ki [9] [nM] | Ki [10] [nM] | also measured
 |  |  |  | O=C(NCCN1CCN(C2CCCc3ccccc32)CC1)c1ccc(F)cc1 (stereo in doubt; 33) [listing 1 of 2 here] | 1.5 | 52 | 70 | 12 | 280 | 80 | Ki ([3]; read-out: Ki): 1180 nM; Ki [4]: 9.77 µM; Ki [5]: 3.47 µM; Ki [8]: 140 nM
 |  |  |  | CCCN(CCC)C1CCc2cccc(O)c2C1 (stereo not drawn) [8-OH-DPAT] |  |  | 2380 | 87.3 | 5240 | 9460 | Ki ([3]; read-out: Ki): 1100 nM; Ki [15]: > 1000 nM; Ki [16]: > 1000 nM; LLR msad [17]: 2.2 mg/kg; Ki [18]: > 2430 nM
 |  |  |  | O=C(NCCN1CCN(C2CCCc3ccccc32)CC1)c1ccc(Cl)cc1 (stereo in doubt; 34) [listing 2 of 2 here] | 10 | 75 | 120 |  |  | 410 | Ki [3]: 1000 nM
39 | 17 | 11 | 2 | O=C(NCCCN1CCN(C2CCCc3ccccc32)CC1)c1ccccc1 (stereo not drawn) |  |  |  |  |  |  | 
42 | 6 | 0 | 5 | Cc1ccc(C(=O)NCCN2CCN(C3CCCc4ccccc43)CC2)cc1 (stereo not drawn) |  |  |  |  |  |  | 
63 | 28 | 0 | 7 | COc1ccc(C(=O)NCCN2CCN(C3CCCc4ccccc43)CC2)cc1 (stereo not drawn) |  |  |  |  |  |  | 
45 | 17 | 6 | 11 | COc1ccc(C(=O)NCCN2CCN(C3CCc4ccccc43)CC2)cc1 (stereo not drawn) |  |  |  |  |  |  | 
 |  |  |  | COc1cccc(OC)c1OCCNCC1COc2ccccc2O1 (stereo not drawn) |  |  |  |  |  |  | Ki [19]: 0.6 nM
51 | 37 | 0 | 7 | O=C(NCCN1CCN(C2CCCCc3ccccc32)CC1)c1ccccc1 (stereo not drawn) |  |  |  |  |  |  | 
 |  |  |  | O=C(NCCN1CCN(C2CCCc3ccccc32)CC1)c1ccc(Cl)cc1 (stereo in doubt; (+)-34) | 210 | 1500 | 700 | 19.7 | 200 | 8380 | Ki [3]: 3800 nM
 |  |  |  | O=C1CC2(CCCC2)CC(=O)N1CCCCN1CCN(c2ncccn2)CC1 [BUSPIRONE] |  |  | 44 | 6.1 |  | 1320 | Ki ([3]; read-out: Ki): 1250 nM; Ki [15]: 178 nM; Ki [16]: > 1000 nM
 |  |  |  | O=C(NCCN1CCN(C2CCCc3ccccc32)CC1)c1ccc(Cl)cc1 (stereo in doubt; (-)-34) | 4 | 38 | 480 | 27 | 1250 | 450 | Ki [3]: 2700 nM; LLR msad [17]: 2.5 mg/kg
 |  |  |  | O=C(NCCN1CCN(C2CCCc3ccccc32)CC1)c1ccc(F)cc1 (single isomer, unassigned; (-)) |  | 15 | 70 | 3.09 | 130 | 124 | Ki ([3]; read-out: Ki): 1380 nM; Ki [8]: 58 nM; LLR msad [17]: 2.25 mg/kg
 |  |  |  | O=C(NCCN1CCN(C2CCCc3ccccc32)CC1)c1ccccc1 (stereo in doubt; 32) [listing 1 of 2 here] | 1.1 | 36 | 110 | 21.9 | 90 | 150 | Ki ([3]; read-out: Ki): 710 nM; Ki [4]: 6.92 µM; Ki [5]: 3.47 µM; Ki [8]: 30 nM
0 | 14 | 0 | 47 | Cc1ccc(C(=O)NCCN2CCN(C3CCCCc4ccccc43)CC2)cc1 (stereo not drawn) |  |  |  |  |  |  | 
11 | 10 | 0 | 60 | COc1ccc(C(=O)NCCN2CCN(C3CCCCc4ccccc43)CC2)cc1 (stereo not drawn) |  |  |  |  |  |  | 
 |  |  |  | O=C(NCCN1CCN(C2CCCc3ccccc32)CC1)c1ccc(F)cc1 (single isomer, unassigned; (+)) | 50 | 1450 | 740 |  | 190 | 710 | Ki ([3]; read-out: Ki): 1300 nM
69 | 0 | 36 | 0 | O=C(NCCN1CCN(C2CCc3ccccc32)CC1)c1ccc(F)cc1 (stereo not drawn) |  |  |  |  |  |  | 
22 | 23 | 0 | 31 | O=C(NCCN1CCN(C2CCCCc3ccccc32)CC1)c1ccc(F)cc1 (stereo not drawn) |  |  |  |  |  |  | 
68 | 19 | 6 | 0 | O=C(NCCCN1CCN(C2CCCc3ccccc32)CC1)c1ccc(F)cc1 (stereo not drawn) |  |  |  |  |  |  | 
 |  |  |  | O=C(NCCN1CCN(C2CCCc3ccccc32)CC1)c1ccccc1 (single isomer, unassigned; (-)) | 0.4 | 14 | 130 |  |  | 190 | Ki [8]: 70 nM; LLR msad [17]: 2.75 mg/kg
 |  |  |  | OCCN1CCN(CC/C=C2\c3ccccc3Sc3ccc(C(F)(F)F)cc32)CC1 [E-FLUPENTIXOL] |  |  |  |  |  |  | Ki [21]: 18 nM

Compound | inhibition [11] [%] | inhibition [12] [%] | inhibition [13] [%] | inhibition [14] [%] | Ki [1] [nM] | IC50 [2] [nM] | Ki [6] [nM] | Ki [7] [µM] | Ki [9] [nM] | Ki [10] [nM] | also measured
O=C(NCCN1CCN(C2CCCc3ccccc32)CC1)c1ccc(Cl)cc1 (stereo in doubt; 34) [listing 1 of 2 here] | 86 | 6 | 23 | 29 |  |  |  |  |  |  | 
O=C(NCCN1CCN(C2CCCc3ccccc32)CC1)c1ccc(F)cc1 (stereo in doubt; 33) [listing 2 of 2 here] | 88 | 17 | 22 | 3 |  |  |  |  |  |  | 
O=C(CCCN1CCN(C2CCCc3ccccc32)CC1)c1ccc(F)cc1 (stereo not drawn) | 37 | 20 | 1 | 74 | 17 | 210 | 110 | 1 | 30 |  | Ki ([3]; read-out: Ki): 66 nM; Ki [5]: 3.16 µM; Ki [20]: 18 nM; Ki [8]: 42 nM; LLR msad [17]: >64 mg/kg
O=C(NCCN1CCN(C2CCCc3ccccc32)CC1)c1ccccc1 (stereo in doubt; 32) [listing 2 of 2 here] | 93 | 0 | 4 | 4 |  |  |  |  |  |  | 

Source: ChEMBL document CHEMBL1129976, “New benzocycloalkylpiperazines, potent and selective 5-HT1A receptor ligands” (J Med Chem, 1997)
